Test systems include MDA-MB-435; RPMI-8226 leukemia; SK-OV-3 ovarian; OVCAR-5 ovarian; RXF 393 renal; ACHN renal; SK-MEL-28 melanoma; HS 578T breast; SNB-75 CNS; HCT-15 colon; M14 melanoma; SNB-19 CNS; SW-620 colon; LOX IMVI melanoma; OVCAR-3 ovarian; A498 renal.
Common to all, as to experiment: DTP human tumour cell line panel, 48 h

Each structure is given as a SMILES string. Several values for one entry are separate records, joined by “and”; a condition that tells them apart may be missing. Identical values can stand only once.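 1) Cells in 96-well plates. 2) Compound, 48 h, 5 concentrations. 3) Linear interpolation between surrounding doses. 4) Unreached endpoint = highest concentration. Here, GI50 denotes the concentration required for 50% inhibition of growth. TGI: concentration producing complete growth inhibition.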 Where a SMILES comes first, the peptide text is derived from it. The star is where a group is joined. Cbz = O=C(OCc1ccccc1)*; Boc = CC(C)(C)OC(=O)*; OSu = O=C1CCC(=O)N1O*; Bn = c1ccc(C*)cc1

The term TGI denotes the concentration giving total growth inhibition. A lower TGI goes with greater sensitivity of the cells. What is called GI50 is the concentration that inhibits growth by half.

For `CC(C)(C)OC(=O)NC(Cc1ccc(OCc2ccccc2)cc1)C(=O)NC(CCCCNC(=O)OCc1ccccc1)C(=O)NC(CCCCNC(=O)OCc1ccccc1)C(=O)ON1C(=O)CCC1=O` (stereo not drawn) (Boc-Tyr(Bn)-Lys(Cbz)-Lys(Cbz)-OSu; configuration not given here), the TGI with MDA-MB-435, in the experiment on RPMI-8226 leukemia, in the experiment on SK-OV-3 ovarian, in the experiment on OVCAR-5 ovarian, in the experiment on RXF 393 renal and with ACHN renal was greater than 100 µM each time. Moreover, the total growth inhibition concentration (TGI) in the experiment with SK-MEL-28 melanoma is greater than 100 µM; in the experiment on HS 578T breast it was 49 µM; in the experiment on SNB-75 CNS, greater than 100 µM; in the experiment with HCT-15 colon it was greater than 100 µM; in the experiment on M14 melanoma, greater than 100 µM; in the experiment on SNB-19 CNS it was 30.7 µM.
Take `Clc1cc2ncn(C3CCCCO3)c2cc1Cl` (stereo not drawn): the TGI with MDA-MB-435, in the experiment with RPMI-8226 leukemia, with SW-620 colon, in the experiment with SK-OV-3 ovarian, with OVCAR-5 ovarian and with RXF 393 renal was greater than 100 µM in each case. The total growth inhibition concentration (TGI) is greater than 100 µM in the experiment with SK-MEL-28 melanoma; 85.4 µM in the experiment on HS 578T breast; 53.9 µM in the experiment on SNB-75 CNS; greater than 100 µM with HCT-15 colon; greater than 100 µM in the experiment on LOX IMVI melanoma; greater than 100 µM in the experiment on M14 melanoma. Also, the TGI in the experiment on SNB-19 CNS and in the experiment on OVCAR-3 ovarian was greater than 100 µM each time.
With `COC1OC(C(=O)O)C2OC(C)(C)OC12` (stereo not drawn), the total growth inhibition concentration (TGI) in the experiment with MDA-MB-435, in the experiment with RPMI-8226 leukemia, in the experiment with SW-620 colon, in the experiment with SK-OV-3 ovarian, in the experiment on OVCAR-5 ovarian and in the experiment with RXF 393 renal was greater than 100 µM each time. The TGI in the experiment on ACHN renal, in the experiment on SK-MEL-28 melanoma, in the experiment on SNB-75 CNS, with HCT-15 colon, in the experiment on LOX IMVI melanoma and with M14 melanoma was greater than 100 µM each time. Further, the TGI in the experiment on SNB-19 CNS and in the experiment on OVCAR-3 ovarian was greater than 100 µM each time.
Take `CC(C)=CCCC1(C)C2COC(=O)C21` (stereo not drawn): the GI50 with MDA-MB-435 is > 100 µM and 43.6 µM; with HCT-15 colon it was > 100 µM and 37 µM; in the experiment on LOX IMVI melanoma it was 38.8 µM and 19 µM. For the same compound, the TGI in the experiment on MDA-MB-435, with RPMI-8226 leukemia, in the experiment on A498 renal, in the experiment on SW-620 colon, in the experiment on SK-OV-3 ovarian and in the experiment on OVCAR-5 ovarian was greater than 100 µM in each case. In addition, the concentration for total growth inhibition (TGI) with RXF 393 renal is greater than 100 µM; with ACHN renal, greater than 100 µM; with SK-MEL-28 melanoma it was greater than 100 µM; in the experiment on HCT-15 colon it was greater than 100 µM; in the experiment on LOX IMVI melanoma it was > 100 µM and 34.7 µM; with SNB-19 CNS, greater than 100 µM.
Take `C[n+]1c2ccccc2c(C(=O)Nc2ccc(S(=O)(=O)Nc3ncccn3)cc2)c2ccccc21`: the TGI in the experiment on MDA-MB-435, with RPMI-8226 leukemia, in the experiment on SW-620 colon, in the experiment with SK-OV-3 ovarian, with OVCAR-5 ovarian and with ACHN renal was greater than 100 µM throughout. Also, the TGI in the experiment with SK-MEL-28 melanoma, with HS 578T breast, in the experiment with SNB-75 CNS, in the experiment with HCT-15 colon, in the experiment on LOX IMVI melanoma and in the experiment on M14 melanoma was greater than 100 µM in each case. Also, the total growth inhibition concentration (TGI) in the experiment with SNB-19 CNS and in the experiment with OVCAR-3 ovarian was greater than 100 µM each time.
Consider `Cc1cc(C)n2c(nc3ccccc32)c1C#N`, for which the TGI with MDA-MB-435, with A498 renal, with SW-620 colon, in the experiment with SK-OV-3 ovarian, in the experiment with OVCAR-5 ovarian and in the experiment on RXF 393 renal was greater than 100 µM in each case. Moreover, the TGI in the experiment with ACHN renal, in the experiment on SK-MEL-28 melanoma, with HCT-15 colon, in the experiment on LOX IMVI melanoma, with M14 melanoma and with SNB-19 CNS was greater than 100 µM each time. Moreover, in the experiment with OVCAR-3 ovarian, the TGI was greater than 100 µM.
As to `S=c1[nH]nc(CCCCCCCCc2n[nH]c(=S)o2)o1`, the TGI in the experiment with MDA-MB-435, in the experiment on A498 renal, in the experiment with SW-620 colon, with SK-OV-3 ovarian, with OVCAR-5 ovarian and in the experiment with RXF 393 renal was greater than 100 µM each time. Moreover, the TGI with ACHN renal, in the experiment with SK-MEL-28 melanoma, in the experiment on SNB-75 CNS, in the experiment on HCT-15 colon, in the experiment on LOX IMVI melanoma and in the experiment on M14 melanoma was greater than 100 µM each time. Further, the TGI in the experiment with SNB-19 CNS and in the experiment on OVCAR-3 ovarian was greater than 100 µM in each case.
As for `c1ccc(Nc2nnc(CCCCCCCCc3nnc(Nc4ccccc4)o3)o2)cc1`, the TGI in the experiment with MDA-MB-435, in the experiment with A498 renal, with SW-620 colon, with SK-OV-3 ovarian, in the experiment on OVCAR-5 ovarian and with RXF 393 renal was greater than 100 µM each time. For the same compound, the TGI in the experiment on ACHN renal, with SK-MEL-28 melanoma, in the experiment with SNB-75 CNS, in the experiment on HCT-15 colon, in the experiment on LOX IMVI melanoma and with M14 melanoma was greater than 100 µM throughout. In addition, the total growth inhibition concentration (TGI) in the experiment on SNB-19 CNS and in the experiment on OVCAR-3 ovarian was greater than 100 µM each time.
For `COc1ccc(C23OCC(Cc4cc(OC)c(OC)cc42)C3CO)cc1OC` (stereo not drawn), the TGI in the experiment on MDA-MB-435, in the experiment on RPMI-8226 leukemia, with A498 renal, with SW-620 colon, in the experiment on SK-OV-3 ovarian and with OVCAR-5 ovarian was greater than 100 µM each time. Further, the TGI with RXF 393 renal, in the experiment with ACHN renal, with SK-MEL-28 melanoma, in the experiment on SNB-75 CNS, with HCT-15 colon and with LOX IMVI melanoma was greater than 100 µM each time. Besides, the TGI with M14 melanoma, in the experiment with SNB-19 CNS and in the experiment on OVCAR-3 ovarian was greater than 100 µM throughout.
For the compound `O=S(=O)(O)c1cc(O)c(N=Nc2ccc3ccccc3c2O)c2ccccc12`, the TGI with RPMI-8226 leukemia, in the experiment with SW-620 colon, with SK-OV-3 ovarian, in the experiment on OVCAR-5 ovarian, in the experiment with RXF 393 renal and in the experiment with ACHN renal was greater than 100 µM throughout. Moreover, the concentration for total growth inhibition (TGI) was greater than 100 µM in the experiment with SK-MEL-28 melanoma; greater than 100 µM with HS 578T breast; 79.1 µM in the experiment with SNB-75 CNS; greater than 100 µM in the experiment on HCT-15 colon; 41.4 µM in the experiment with M14 melanoma; greater than 100 µM in the experiment on SNB-19 CNS. Moreover, the TGI in the experiment on OVCAR-3 ovarian was greater than 100 µM.

The values above are taken from PubChem BioAssay (NCI).
